Experiments:
[1] = Octanol/water partition coefficient (Kow), batch partition method; assay type: physicochemical; conditions: 25 °C; batch partition method (BP)
Method: Kow was measured for nine PFAS (Table 2) to supplement the data set for descriptor determination. The nine PFAS were selected based on measurement feasibility and structural diversity. The shared-headspace or batch partition method was used as described previously.[5] Details of the methods are given in SI-1.

[2] = PP-LFER solute descriptor determination from GC retention and partition coefficient data; assay type: physicochemical; conditions: for Solute descriptor L (logarithmic hexadecane/air partition coefficient, KHxd/air): 25 °C, updated in the iterative calculation; for Solute descriptor S (dipolarity/polarizability parameter): final adjusted value, shared within a PFAS group
Source text: The GC columns used were, from low to high polarity, HP-5ms Ultra Inert (poly[5% phenyl/95% methyl]siloxane equivalent; Agilent Technologies, Santa Clara, CA), DB-200 (poly[35% trifluoropropyl/65% methyl]siloxane; Agilent Technologies), DB-225ms (poly[50% cyanopropylphenyl/50% methyl]siloxane equivalent; Agilent Technologies), and SolGel-WAX (polyethylene glycol; Trajan, Ringwood, Australia). Column dimensions were all 30 m × 0.25 mm i.d. with a coating thickness of 0.25 μm.
The method for GC retention time measurements follows that of a previous study.[18] Briefly, a 7890A/5975C GC/MS instrument (Agilent Technologies) equipped with an MPS2 autosampler and CIS4 injector (Gerstel, Mülheim an der Ruhr, Germany) was used for all measurements. For each column, isothermal retention times were measured at four temperatures in the range of 30–120 °C to cover all target compounds. The temperature at the injector and transfer line was fixed at 120 °C. The carrier gas was He at a flow rate of 1.2 mL/min. Compounds were introduced into the GC by injecting either headspace (100–250 μL) above the pure compound or solution in acetone (1 μL). Split injections were performed with a split ratio of 20–250. Column dead time (t0) was determined by injecting air and measuring Ar (m/z 40). From the measured retention time (t), the retention factor (k) was calculated as k = (t–t0)/t0. Measurements with t < t0 + 0.1 min were considered too short and discarded. For each column and temperature, k values were obtained for 29–52 PFAS and 29–48 reference compounds.
The standard procedure for solute descriptor determination was as follows. First, the system parameters in eq 1 were calibrated for each column (or partition system) and temperature by MLR using log k (or log K) data and solute descriptors for reference compounds. Dimethylformamide, 1-pentylamine, dimethylsulfoxide, and dodecamethylcyclohexasiloxane (D6) were removed from the log k data sets, because they frequently appeared as outliers (>3 SD) of the PP-LFER model fit. Reference data sets for hexadecane/water partition coefficients (KHxd/w),[21]Kow,[22] and octanol/air partition coefficients (Koa)[23] were taken from the cited references and amended with data for organosilicon compounds.[24],[25] Similar to PFAS, organosilicon compounds have weak van der Waals interaction properties[9] and it may be beneficial to include them in reference data sets. The solute descriptors for PFAS were then back-calculated by using the calibrated PP-LFER equations. Of the five descriptors, V can be calculated from the molecular structure[26] (note: the fragment value for F from Goss et al.[11] was used), and L was available for the PFAS studied.[18] Thus, the left side of eq 2 was known, and MLR was performed to obtain S, A, and B on the right side. [drawing 2] 2 To determine the three descriptors, a minimum of three k and K data are required for a given PFAS compound. The data used here were: k measured for 60 PFAS in this study, KHxd/w for 21 PFAS,[5]Kow for 12 PFAS (see the Results and Discussion section), and Koa for 3 PFAS.[11]
Key to the accurate determination of the polar interaction descriptors is the availability of K data for partition systems with water as a partition phase because water is a strong H-bond donor and acceptor phase and thus the corresponding K values are sensitive to the H-bonding properties of the solute.[27] In particular, at least one solvent/water or air/water partition coefficient is required to determine B because there is no commonly used GC phase that is a significant H-bond donor. In the data set, KHxd/w is sensitive to both A and B and Kow is sensitive to B. However, KHxd/w and Kow data are not available for all PFAS. To increase the number of PFAS for which descriptors can be determined, the following assumptions were made. […]

[3] = design: method as in PMID 18800530; conditions: 25 °C; batch partition method (BP); ref [4]; cited from earlier work

Row | Compound | Measured Log Kow, Mean ± SD [1] | Solute descriptor L (logarithmic hexadecane/air partition coefficient, KHxd/air) [2] | Solute descriptor S (dipolarity/polarizability parameter) [2] | Log Kow, Mean ± SD [3]
1 | NS(=O)(=O)C(F)(F)C(F)(F)C(F)(F)C(F)(F)F [PFBSA, Perfluorobutanesulfonamide] | 2.85 ± 0.02 | 3.607 | 0.96 | 
2 | OCCC(F)(F)C(F)(F)C(F)(F)C(F)(F)C(F)(F)C(F)(F)F [6:2 FTOH, 1H,1H,2H,2H-Perfluorooctan-1-ol] |  | 2.997 | 0.35 | 4.54 ± 0.01
3 | CNS(=O)(=O)C(F)(F)C(F)(F)C(F)(F)C(F)(F)F [MeFBSA, N-Methylperfluorobutanesulfonamide] | 3.51 ± 0.00 | 3.566 | 0.88 | 
4 | OCCC(F)(F)C(F)(F)C(F)(F)C(F)(F)C(F)(F)C(F)(F)C(F)(F)C(F)(F)F [8:2 FTOH, 1H,1H,2H,2H-Perfluorodecan-1-ol] |  | 3.554 | 0.35 | 5.58 ± 0.06
5 | OCCC(F)(F)C(F)(F)C(F)(F)C(F)(F)F [4:2 FTOH, 1H,1H,2H,2H-Perfluorohexan-1-ol] |  | 2.421 | 0.35 | 3.30 ± 0.04
6 | CN(CCO)S(=O)(=O)C(F)(F)C(F)(F)C(F)(F)C(F)(F)F [MeFBSE, N-Methylperfluorobutanesulfonamidoethanol] | 3.11 ± 0.04 | 4.769 | 1.00 | 
